Measurements reported in publication PMC4996973, “Topology and structure of an engineered human cohesin complex bound to Pds5B” (Nature Communications, 2016).

How the values were obtained:
[1] = biological target: T1, bonsai cohesin trimer (Smc1^B, Smc3^B, Scc1) (Homo sapiens, UniProt Q14683+Q9UQE7, Q14683:DEL201-498/Q9UQE7:DEL205-491/Q14683:DEL676-977/Q9UQE7:DEL686-956); assay: radiolabelled ATPase assay, thin layer chromatography of released […]-Pi; format: biochemical; settings: labelled compound (γ-32P)
T1 construct: gene SMC1A; coiled coils of Smc1 and Smc3 truncated and replaced by two-residue linkers (superscript B = bonsai, not the SMC1B paralogue); Smc3^B-FLAG, Scc1-10HIS tags; co-expressed from baculovirus in Sf9; stoichiometric trimer, 222 kDa; with Double-strand-break repair protein rad21 homolog

[2] = biological target: T2, bonsai cohesin trimer (Smc1^B, Smc3^B, Scc1) (Homo sapiens, UniProt Q14683+Q9UQE7, Q9UQE7:K38A/Q14683:DEL201-498/Q9UQE7:DEL205-491/Q14683:DEL676-977/Q9UQE7:DEL686-956); assay: as above; format: biochemical; settings: labelled compound (γ-32P); ATP-binding region mutant, ATPase largely abolished
T2 construct: gene SMC1A; coiled coils of Smc1 and Smc3 truncated and replaced by two-residue linkers (superscript B = bonsai, not the SMC1B paralogue); Smc3^B-FLAG, Scc1-10HIS tags; co-expressed from baculovirus in Sf9; stoichiometric trimer, 222 kDa; with Double-strand-break repair protein rad21 homolog

[3] = biological target: T1, bonsai cohesin trimer (Smc1^B, Smc3^B, Scc1); assay: differential scanning fluorimetry (thermal shift); format: binding; settings: slowly hydrolysable ATP analogue; stabilises the complex; trimer inferred from context
[4] = biological target: T3, Pds5B^10HIS (human, UniProt Q9NTI5 1-1447); assay: cross-linking; chemical crosslinking followed by mass spectrometry of purified bonsai cohesin (co-expressed subunits) bound to Pds5B; 102 inter- and 244 intramolecular crosslinks; details in the Supplementary Methods; settings: both partners purified
T3 construct: Pds5B, human, recombinant; printed mass 165 kDa; source: sf9 cells (baculovirus), purified (Ni-NTA; imidazole removed by dilution and concentration or by size-exclusion chromatography on Superdex 200), freeze-thawed
T3 sequence (looked up): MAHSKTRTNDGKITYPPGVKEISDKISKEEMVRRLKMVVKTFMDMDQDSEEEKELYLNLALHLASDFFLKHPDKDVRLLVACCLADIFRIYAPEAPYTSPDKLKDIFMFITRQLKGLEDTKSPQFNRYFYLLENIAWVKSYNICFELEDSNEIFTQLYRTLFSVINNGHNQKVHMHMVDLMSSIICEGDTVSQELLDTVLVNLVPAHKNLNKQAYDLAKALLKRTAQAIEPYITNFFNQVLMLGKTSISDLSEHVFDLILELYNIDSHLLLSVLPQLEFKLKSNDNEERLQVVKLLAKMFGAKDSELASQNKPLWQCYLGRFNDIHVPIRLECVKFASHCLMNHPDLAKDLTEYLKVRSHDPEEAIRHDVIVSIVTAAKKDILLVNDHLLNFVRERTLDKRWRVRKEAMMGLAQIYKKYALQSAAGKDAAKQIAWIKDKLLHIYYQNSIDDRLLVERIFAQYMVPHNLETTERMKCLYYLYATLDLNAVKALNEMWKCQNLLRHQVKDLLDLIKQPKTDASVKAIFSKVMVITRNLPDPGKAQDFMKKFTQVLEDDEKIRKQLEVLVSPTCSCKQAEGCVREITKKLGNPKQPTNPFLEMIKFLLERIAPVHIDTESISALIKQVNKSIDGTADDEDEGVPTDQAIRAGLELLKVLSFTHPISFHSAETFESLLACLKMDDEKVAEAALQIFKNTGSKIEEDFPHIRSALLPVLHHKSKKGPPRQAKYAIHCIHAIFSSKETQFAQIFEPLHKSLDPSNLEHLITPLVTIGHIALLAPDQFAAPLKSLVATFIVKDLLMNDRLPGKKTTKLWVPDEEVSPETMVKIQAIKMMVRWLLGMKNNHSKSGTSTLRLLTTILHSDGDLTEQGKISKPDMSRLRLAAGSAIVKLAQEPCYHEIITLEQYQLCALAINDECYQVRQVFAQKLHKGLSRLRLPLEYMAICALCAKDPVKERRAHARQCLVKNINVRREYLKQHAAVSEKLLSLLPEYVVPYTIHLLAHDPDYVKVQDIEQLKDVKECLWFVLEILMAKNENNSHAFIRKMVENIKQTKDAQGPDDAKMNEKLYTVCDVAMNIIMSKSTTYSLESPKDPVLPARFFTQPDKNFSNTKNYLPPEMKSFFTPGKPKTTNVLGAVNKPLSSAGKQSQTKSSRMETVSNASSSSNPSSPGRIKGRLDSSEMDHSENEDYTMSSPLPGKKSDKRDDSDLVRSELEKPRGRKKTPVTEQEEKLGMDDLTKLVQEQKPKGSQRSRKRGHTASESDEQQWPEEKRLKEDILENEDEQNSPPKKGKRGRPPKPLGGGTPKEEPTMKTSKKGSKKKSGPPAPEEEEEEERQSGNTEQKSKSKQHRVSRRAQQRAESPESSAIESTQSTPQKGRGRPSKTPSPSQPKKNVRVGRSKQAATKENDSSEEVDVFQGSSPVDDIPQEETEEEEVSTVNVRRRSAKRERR

[5] = biological target: T3, Pds5B^10HIS; assay: negative staining EM, single-particle 3D reconstruction; GraFix-prepared complexes (0.1% glutaraldehyde gradient, ATPγS), uranyl formate stain; 3D models at 28-35 Å; densities assigned by difference maps; settings: both partners purified

Nc1ncnc2c1ncn2[C@@H]1O[C@H](COP(=O)(O)OP(=O)(O)OP(=O)(O)O)[C@@H](O)[C@H]1O [ATP]
radiolabelled ATPase assay, thin layer chromatography of released 32P-Pi [1]: Bonsai trimers containing wild-type NBDs ... were able to hydrolyse ATP
radiolabelled ATPase assay, thin layer chromatography of released 32P-Pi [2]: The single point mutation largely abolished bonsai cohesin's ATPase activity

Nc1ncnc2c1ncn2[C@@H]1O[C@H](COP(=O)(O)OP(=O)(O)OP(O)(O)=S)[C@@H](O)[C@H]1O [ATPγS]
differential scanning fluorimetry (thermal shift) [3]: presence of the slowly hydrolyzable ATP-analogue ATPyS, as well as a near physiological pH improved the stability

B1: SA1 (natural protein, human, UniProt Q8WVM7 1-1258, looked up)
chain: MITSELPVLQDSTNETTAHSDAGSELEETEVKGKRKRGRPGRPPSTNKKPRKSPGEKSRIEAGIRGAGRGRANGHPQQNGEGEPVTLFEVVKLGKSAMQSVVDDWIESYKQDRDIALLDLINFFIQCSGCRGTVRIEMFRNMQNAEIIRKMTEEFDEDSGDYPLTMPGPQWKKFRSNFCEFIGVLIRQCQYSIIYDEYMMDTVISLLTGLSDSQVRAFRHTSTLAAMKLMTALVNVALNLSIHQDNTQRQYEAERNKMIGKRANERLELLLQKRKELQENQDEIENMMNSIFKGIFVHRYRDAIAEIRAICIEEIGVWMKMYSDAFLNDSYLKYVGWTLHDRQGEVRLKCLKALQSLYTNRELFPKLELFTNRFKDRIVSMTLDKEYDVAVEAIRLVTLILHGSEEALSNEDCENVYHLVYSAHRPVAVAAGEFLHKKLFSRHDPQAEEALAKRRGRNSPNGNLIRMLVLFFLESELHEHAAYLVDSLWESSQELLKDWECMTELLLEEPVQGEEAMSDRQESALIELMVCTIRQAAEAHPPVGRGTGKRVLTAKERKTQIDDRNKLTEHFIITLPMLLSKYSADAEKVANLLQIPQYFDLEIYSTGRMEKHLDALLKQIKFVVEKHVESDVLEACSKTYSILCSEEYTIQNRVDIARSQLIDEFVDRFNHSVEDLLQEGEEADDDDIYNVLSTLKRLTSFHNAHDLTKWDLFGNCYRLLKTGIEHGAMPEQIVVQALQCSHYSILWQLVKITDGSPSKEDLLVLRKTVKSFLAVCQQCLSNVNTPVKEQAFMLLCDLLMIFSHQLMTGGREGLQPLVFNPDTGLQSELLSFVMDHVFIDQDEENQSMEGDEEDEANKIEALHKRRNLLAAFSKLIIYDIVDMHAAADIFKHYMKYYNDYGDIIKETLSKTRQIDKIQCAKTLILSLQQLFNELVQEQGPNLDRTSAHVSGIKELARRFALTFGLDQIKTREAVATLHKDGIEFAFKYQNQKGQEYPPPNLAFLEVLSEFSSKLLRQDKKTVHSYLEKFLTEQMMERREDVWLPLISYRNSLVTGGEDDRMSVNSGSSSSKTSSVRNKKGRPPLHKKRVEDESLDNTWLNRTDTMIQTPGPLPAPQLTSTVLRENSRPMGDQIQEPESEHGSEPDFLHNPQMQISWLGQPKLEDLNRKDRTGMNYMKVRTGVRHAVRGLMEEDAEPIFEDVMMSSRSQLEDMNEEFEDTMVIDLPPSRNRRERAELRPDFFDSAAIIEDDSGFGMPMF
notes: SA1, human (146 kDa printed)
binding result [4]: binds

B2: Scc1^10HIS (natural protein, human, UniProt O60216 1-631, looked up)
chain: MFYAHFVLSKRGPLAKIWLAAHWDKKLTKAHVFECNLESSVESIISPKVKMALRTSGHLLLGVVRIYHRKAKYLLADCNEAFIKIKMAFRPGVVDLPEENREAAYNAITLPEEFHDFDQPLPDLDDIDVAQQFSLNQSRVEEITMREEVGNISILQENDFGDFGMDDREIMREGSAFEDDDMLVSTTTSNLLLESEQSTSNLNEKINHLEYEDQYKDDNFGEGNDGGILDDKLISNNDGGIFDDPPALSEAGVMLPEQPAHDDMDEDDNVSMGGPDSPDSVDPVEPMPTMTDQTTLVPNEEEAFALEPIDITVKETKAKRKRKLIVDSVKELDSKTIRAQLSDYSDIVTTLDLAPPTKKLMMWKETGGVEKLFSLPAQPLWNNRLLKLFTRCLTPLVPEDLRKRRKGGEADNLDEFLKEFENPEVPREDQQQQHQQRDVIDEPIIEEPSRLQESVMEASRTNIDESAMPPPPPQGVKRKAGQIDPEPVMPPQQVEQMEIPPVELPPEEPPNICQLIPELELLPEKEKEKEKEKEDDEEEEDEDASGGDQDQEERRWNKRTQQMLHGLQRALAKTGAESISLLELCRNTNRKQAAAKFYSFLVLKKQQAIELTQEEPYSDIIATPGPRFHII
notes: Scc1 (Rad21, Mcd1), human; also called Rad21; Mcd1
binding result [5]: binds
